Results published in publication PMC6471485, “Selective Inhibitors of a Human Prolyl Hydroxylase (OGFOD1) Involved in Ribosomal Decoding” (Chemistry (Weinheim an Der Bergstrasse, Germany), 2019).

target: T1, PHD2181-426 (Homo sapiens, UniProt Q9GZT9); assay: PHD2 inhibition assay: hydroxylation of HIF-1a CODD peptide by MALDI-TOF MS; format: biochemical; details: inhibitor 100 µM, PHD2181-426 1 µM (Figures S2, S8)
T1 construct: 181-426 (1 µM) was
Experimental: (§1) OGFOD1 inhibition assays were performed by determining the extent of hydroxylation of a 20mer fragment of human ribosomal protein S23 (RPS23) containing residues 51-70 (H2N- […]
(§2) -CONH2) by matrix-assisted laser desorption/ionization time-of-flight mass spectrometry (MALDI-TOF MS) using a Waters Micromass MALDI micro MX mass spectrometer and MassLynx 4.1, as previously described.[7,8] The optimized hydroxylation assay involved incubation of OGFOD1 (1 µM) with inhibitor (1 % v/v in DMSO) in the presence of (NH4)2Fe(SO4)2 (50 µM), the disodium salt of 2-oxoglutarate (25 µM), […]
(§3) OGFOD1 was pre-incubated with inhibitor for 5 min before initiation of the reaction via the addition of the other reagents. Reactions were quenched with formic acid (1 % v/v) after 15 min. Samples were prepared for MALDI using α-cyano-4-hydrocinnamic acid (CHCA; prepared in 50 % acetonitrile) as a matrix. Dose-responses were assessed in 8-point triplicates, normalized to a no enzyme negative control and a no inhibitor positive control. Non-linear regression analysis was performed using Prism (GraphPad).
PHD2181-426 inhibition assays were performed by determining the extent of hydroxylation of a HIF-1a CODD peptide substrate (HIF-1a residues 556-574), using MALDI-TOF MS as described with OGFOD1.[8] The optimized hydroxylation assay involved incubation of PHD2181-426 (1 µM) with inhibitor (1 % v/v in DMSO) in the presence of (NH4)2Fe(SO4)2 (10 µM), the disodium salt of 2-oxoglutarate (60 µM), sodium ascorbate (100 µM), and HIF-1aCODD 556-574 (50 µM) in HEPES (50 mM, pH 7.5) at 37 °C for 15 min. The FIH assay employed MALDI-TOF MS detection of hydroxylation. Reactions consisted of FIH […]
(50 nM), ankyrin peptide (50 µM; […]), the disodium salt of 2- […]
oxoglutarate (100 µM), sodium ascorbate (100 µM), and (NH4)2Fe(SO4)2 (10 µM), and […]

T1 sequence (Q9GZT9 181-426 limits assumed): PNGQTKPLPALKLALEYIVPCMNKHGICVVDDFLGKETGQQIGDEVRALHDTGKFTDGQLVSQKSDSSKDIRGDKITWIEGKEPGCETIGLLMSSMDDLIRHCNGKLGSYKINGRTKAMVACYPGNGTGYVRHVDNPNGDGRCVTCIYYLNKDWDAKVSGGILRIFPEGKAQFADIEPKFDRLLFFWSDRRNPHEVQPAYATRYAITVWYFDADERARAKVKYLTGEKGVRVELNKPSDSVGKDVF

Molecule	inhibition of PHD2 hydroxylation activity, in words
Cn1c(O)c(C(=O)Cc2ccccc2)c(=O)n(C)c1=O [compound 25]	Lack of inhibition
Cn1c(O)c(C(=O)c2ccccc2)c(=O)n(C)c1=O [compound 24]	Lack of inhibition

test system: not given; assay: not given; details: not given

Molecule	melting point [°C]
Cn1c(O)c(C(=O)CCC2CCCCC2)c(=O)n(C)c1=O	58
Cn1c(O)c(C(=O)[C@H]2C[C@H]2c2ccccc2)c(=O)n(C)c1=O	111
CC(CC(=O)c1c(O)n(C)c(=O)n(C)c1=O)c1ccccc1 (stereo not drawn)	100
Cc1ccc(CCC(=O)c2c(O)n(C)c(=O)n(C)c2=O)cc1	140
Cn1c(O)c(C(=O)C2Cc3ccccc3C2)c(=O)n(C)c1=O	120
Cc1cccc(CCC(=O)c2c(O)n(C)c(=O)n(C)c2=O)c1	131

test system: PHD enzymes in HeLa cells; assay: HIFα Western blot in HeLa cells (activity of PHD enzymes in cells); format: cell-based, human; details: HeLa cells treated 5 h, anti-HIF-1α Western blot
Experimental: supplemented with 80 µM Zn(II), 70 µM of inhibitor, all in 50 mM Tris-d11, pH 7.5, 10 % D2O, […]
Cell Culture and Immunoblotting
HeLa cells were cultured in DMEM media supplemented with 10 % fetal bovine serum, 4 mM L-glutamine, 100 U/mL penicillin, and 100 µg/mL streptomycin. Cells were treated with the indicated compounds, prepared in 1% DMSO, for 5 h. Following a PBS buffer rinse, cells were lysed in urea/SDS buffer supplemented with 1 mM dithiothreitol. Cell extracts were analyzed by SDS-PAGE, electroblotted onto PVDF membranes (Millipore) and probed with anti-HIF-1α antibody (clone 54, BD Transduction Laboratories) at 1:1000 dilution for 1 h at room temperature. The HRP-conjugated secondary antibody was then applied at room temperature for 1 h. Target proteins were detected with SuperSignal Chemiluminescent […]
ADMET in vitro Predictors
S9 liver microsome stability assays and MDCK-MDR1 efflux assays were carried out for CCT3 and CCT4 by Cyprotex (UK). Additional details are provided later in the Supporting

Molecule	HIFα stabilization in HeLa cells, in words
CC(C)(C)OC(=O)c1ccc(-n2[nH]cc(-n3ccnn3)c2=O)nc1 [IOX4, reference compound]	inhibits the hydroxylation of HIFα, preventing proteasomal degradation

target: T2, OGFOD1 (Homo sapiens, UniProt Q8N543); assay: OGFOD1 inhibition assay: hydroxylation of RPS23 51-70 peptide by MALDI-TOF MS; format: biochemical; details: IC50 against OGFOD1, 1 μM OGFOD1; minimum measurable IC50 0.5 μM; values for 24 and 25 regarded as preliminary
T2 sequence (Q8N543 1-542): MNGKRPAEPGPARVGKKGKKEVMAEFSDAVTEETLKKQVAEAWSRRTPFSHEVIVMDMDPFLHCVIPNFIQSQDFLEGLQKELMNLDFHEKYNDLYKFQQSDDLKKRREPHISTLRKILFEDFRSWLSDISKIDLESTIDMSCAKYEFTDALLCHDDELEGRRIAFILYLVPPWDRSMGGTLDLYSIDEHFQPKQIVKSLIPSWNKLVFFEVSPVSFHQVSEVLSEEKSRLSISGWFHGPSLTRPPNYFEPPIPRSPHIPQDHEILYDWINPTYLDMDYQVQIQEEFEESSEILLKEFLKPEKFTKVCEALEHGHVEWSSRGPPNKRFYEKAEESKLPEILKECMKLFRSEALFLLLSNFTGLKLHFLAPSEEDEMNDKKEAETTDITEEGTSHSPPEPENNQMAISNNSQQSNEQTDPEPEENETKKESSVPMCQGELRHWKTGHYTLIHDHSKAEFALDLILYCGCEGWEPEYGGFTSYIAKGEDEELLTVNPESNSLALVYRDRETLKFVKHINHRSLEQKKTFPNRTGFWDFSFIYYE
Experimental: as §1, §2
as §3, with “(GraphPad). […]” for “(GraphPad).”

Molecule	IC50 [µM]
Cn1c(O)c(C(=O)Cc2ccccc2)c(=O)n(C)c1=O [compound 25]	2
Cn1c(O)c(C(=O)c2ccccc2)c(=O)n(C)c1=O [compound 24]	30

same assay, conditions: OGFOD1 1 μM (Figure 3B)

Molecule	OGFOD1 inhibition in fragment-based screening, in words
CCOC(=O)CC(=O)OCC [compound 10, diethyl malonate]	poor inhibitors
CC(=O)c1c(O)cccc1O [compound 16, 2′,6′‐dihydroxyacetophenone]	relatively poor OGFOD1 inhibitor
CC(=O)c1c(O)n(C)c(=O)n(C)c1=O [compound 20]	improved potency
CC(=O)c1c(O)[nH]c(=O)[nH]c1=O [compound 18]	improved potency
CC(=O)c1c(O)[nH]c(=S)[nH]c1=O [compound 19]	did not substantially increase the potency
CC(=O)C1CCCCC1=O (stereo not drawn) [compound 11, 2‐acetylcyclohexanone]	poor inhibitors

same assay, conditions: OGFOD1 1 µM; inhibitors at 100, 20, 5, 1 µM (Figure S9) or 5 and 1 µM (Figure S10)

Molecule	relative potency of OGFOD1 inhibition in barbiturate SAR, in words
O=C(CCC1CCCC1)c1c(O)n(C2CCCCC2)c(=O)n(C2CCCCC2)c1=O [compound 31]	less potent than 29
CCn1c(O)c(C(=O)CCC2CCCC2)c(=O)n(CC)c1=O [compound 30]	less potent than 29
Cn1c(O)c(C(=O)CCCCc2ccccc2)c(=O)n(C)c1=O [compound 28]	did not provide a substantial increase in potency
Cn1c(O)c(C(=O)NCc2ccccc2)c(=O)n(C)c1=O [compound 46]	had little effect
Cn1c(O)c(C(=O)CCCc2ccccc2)c(=O)n(C)c1=O [compound 27]	did not provide a substantial increase in potency

same assay, conditions: OGFOD1 and PHD2 1 µM each; 23 at 100 µM (Figure 4; Figure S6)

Molecule	selectivity for OGFOD1 over PHD2, in words
CCOC(=O)CNC(=O)c1c(O)[nH]c(=O)[nH]c1=O [compound 22]	did not manifest clear selectivity for OGFOD1 over PHD2
CCOC(=O)CNC(=O)c1c(O)n(C)c(=O)n(C)c1=O [compound 23]	did not manifest clear selectivity for OGFOD1 over PHD2

same assay, conditions: inhibitor 100 µM, OGFOD1 1 µM (Figures S1, S2)

Molecule	inhibition of OGFOD1 hydroxylation activity, in words
O=C(O)CNC(=O)c1nc(Cl)c2ccccc2c1O [compound 7, reference compound]	inhibited OGFOD1
Cc1nc(C(=O)NCC(=O)O)c(O)c2ccc(Oc3ccccc3)cc12 [compound 8, reference compound]	inhibited OGFOD1
O=C1CCCC(=O)C1C(=O)c1ccc(C(F)(F)F)cc1[N+](=O)[O-] [compound 1, nitisinone, reference compound]	is an OGFOD1 inhibitor
trinexapac‐ethyl [compound 5, reference compound]	inhibition of OGFOD1
O=C(O)CNC(=O)c1c(O)c2ccccc2n(Cc2ccccc2)c1=O [compound 9, reference compound]	inhibited OGFOD1
CCC(O)=C1C(=O)CC(C(=O)O)CC1=O (stereo not drawn) [compound 4, prohexadione‐calcium, reference compound]	inhibition of OGFOD1
